Bounds are passed on as bounds.

In one experiment the target is T1, androgen receptor (AR) (Homo sapiens, UniProt P10275).
T1 construct: endogenous in cells
T1 sequence (P10275 1-920): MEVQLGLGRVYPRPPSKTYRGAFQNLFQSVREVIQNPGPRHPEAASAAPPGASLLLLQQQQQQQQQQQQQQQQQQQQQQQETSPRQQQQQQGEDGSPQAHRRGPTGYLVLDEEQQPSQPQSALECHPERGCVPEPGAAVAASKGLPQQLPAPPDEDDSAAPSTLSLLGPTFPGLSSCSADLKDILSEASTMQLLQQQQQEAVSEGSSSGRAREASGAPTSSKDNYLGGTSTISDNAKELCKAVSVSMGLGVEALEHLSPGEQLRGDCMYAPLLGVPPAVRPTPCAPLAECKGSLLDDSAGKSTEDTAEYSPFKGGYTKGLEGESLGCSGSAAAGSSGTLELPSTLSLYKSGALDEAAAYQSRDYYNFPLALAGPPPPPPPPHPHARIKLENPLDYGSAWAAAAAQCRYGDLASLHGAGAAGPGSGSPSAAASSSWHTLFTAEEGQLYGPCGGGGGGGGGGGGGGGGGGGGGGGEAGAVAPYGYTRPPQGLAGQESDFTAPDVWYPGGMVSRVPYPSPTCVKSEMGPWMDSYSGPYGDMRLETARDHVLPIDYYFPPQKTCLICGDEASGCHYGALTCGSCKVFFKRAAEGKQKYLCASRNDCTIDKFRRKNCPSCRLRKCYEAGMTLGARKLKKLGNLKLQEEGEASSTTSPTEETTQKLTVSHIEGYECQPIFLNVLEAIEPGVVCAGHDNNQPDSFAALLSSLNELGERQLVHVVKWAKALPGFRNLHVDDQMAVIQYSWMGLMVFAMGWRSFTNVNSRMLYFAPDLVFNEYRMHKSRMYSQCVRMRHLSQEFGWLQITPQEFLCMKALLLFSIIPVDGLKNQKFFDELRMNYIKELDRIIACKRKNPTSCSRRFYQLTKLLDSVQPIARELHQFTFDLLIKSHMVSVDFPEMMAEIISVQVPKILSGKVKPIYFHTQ
As to the kind of experiment: Androgen receptor degradation, western blot. Format: cell-based. Particulars: AR degradation potency, cell line not stated. How it is done:
Western blot analysis was performed essentially as described previously. The cells treated with indicated compounds were lysed in Radioimmunoprecipitation Assay Protein Lysis and Extraction Buffer (25 mmol/L Tris.HCl, pH 7.6, 150 mmol/L NaCl, 1% Nonidet P-40, 1% sodium deoxycholate, and 0.1% sodium dodecyl sulfate) containing proteinase inhibitor cocktail (Roche Diagnostics, Mannheim, Germany). Equal amounts of total protein were electrophoresed through 10% SDS-polyacrylamide gels after determination of protein concentration by BCA assay (Fisher Scientific, Pittsburgh, PA). The separated protein bands were transferred onto PVDF membranes (GE Healthcare Life Sciences, Marlborough, MA) and blotted against different antibodies, as indicated. The blots were scanned, and the band intensities were quantified using GelQuant.NET software provided by biochemlabsolutions.com. The relative mean intensity of target proteins was expressed after normalization to the intensity of glyceraldehyde-3-phosphate dehydrogenase bands.
On the technique in general: Immunoblotting shows a protein as a band on a membrane.

A further experiment deals with T2, BRD9 (Homo sapiens, UniProt Q9H8M2).
T2 construct: endogenous in cells; host or cells: HEK293 (CRISPR HiBiT knock-in)
T2 sequence (Q9H8M2 whole entry): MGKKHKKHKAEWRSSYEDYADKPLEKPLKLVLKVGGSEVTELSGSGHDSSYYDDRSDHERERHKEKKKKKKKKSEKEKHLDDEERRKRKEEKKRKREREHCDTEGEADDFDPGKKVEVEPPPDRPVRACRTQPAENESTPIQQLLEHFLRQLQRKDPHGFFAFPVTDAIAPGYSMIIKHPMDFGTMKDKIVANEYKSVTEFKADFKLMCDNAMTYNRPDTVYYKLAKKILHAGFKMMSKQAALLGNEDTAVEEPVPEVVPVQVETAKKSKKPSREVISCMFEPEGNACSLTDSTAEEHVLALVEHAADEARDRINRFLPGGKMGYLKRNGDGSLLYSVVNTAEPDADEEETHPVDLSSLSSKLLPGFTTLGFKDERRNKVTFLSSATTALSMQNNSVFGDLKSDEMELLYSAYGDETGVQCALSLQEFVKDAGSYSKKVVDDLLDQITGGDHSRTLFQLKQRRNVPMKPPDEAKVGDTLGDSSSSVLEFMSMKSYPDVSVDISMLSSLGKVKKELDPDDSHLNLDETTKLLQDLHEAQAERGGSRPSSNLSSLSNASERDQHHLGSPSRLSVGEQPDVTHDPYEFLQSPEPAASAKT
As to the kind of experiment: BRD9 HiBiT assay for protein degradation (HEK293 CRISPR knock-in). The format is cell-based. As to conditions: for Dmax: HEK293, read-out: BRD9 HEK293 HiBit Dmax; for DC50: HEK293 CRISPR knock-in cells, 6 hrs. On the procedure:
HiBiT Assay for protein degradation:
The HiBit assay was performed using engineered HEK293 CRISPR knock-in cell utilizing the Nano-Glo HiBiT Lytic Detection System from Promega, Cat #N3040. Compounds were transferred, 25 nL DMSO or test compounds (final DMSO @ 0.1%) to intermediate plates (Corning3570) using ECHO550. Cells were seeded onto compounds at 2000 cells/25 μL/well and incubated for 6 hrs in tissue culture incubator at 37° C. and 5% CO2. The LgBiT Protein was diluted at 1:100 and the Nano-Glo® HiBiT Lytic Substrate 1:50 into an appropriate volume of room temperature using the Nano-Glo® HiBiT Lytic Buffer. At end of compound incubation time 15 ul of the detection reagent was added to each well (without LgBiT for negative control wells) using the Thermo Scientific multidrop combi. The plate was shaken for 10 mins at RT using Combi. After brief centrifugation (2000 rpm 1 mins), plate was read on Envision (Ultrasensitive luminescence model).
For orientation: The HiBiT peptide binds its large partner to form an active luciferase.

Experiment [1] deals with GST-tagged wild-type human CRBN protein (Homo sapiens, UniProt Q96SW2). Briefly: biochemical.
Chain of GST-tagged wild-type human CRBN protein (Q96SW2 whole entry): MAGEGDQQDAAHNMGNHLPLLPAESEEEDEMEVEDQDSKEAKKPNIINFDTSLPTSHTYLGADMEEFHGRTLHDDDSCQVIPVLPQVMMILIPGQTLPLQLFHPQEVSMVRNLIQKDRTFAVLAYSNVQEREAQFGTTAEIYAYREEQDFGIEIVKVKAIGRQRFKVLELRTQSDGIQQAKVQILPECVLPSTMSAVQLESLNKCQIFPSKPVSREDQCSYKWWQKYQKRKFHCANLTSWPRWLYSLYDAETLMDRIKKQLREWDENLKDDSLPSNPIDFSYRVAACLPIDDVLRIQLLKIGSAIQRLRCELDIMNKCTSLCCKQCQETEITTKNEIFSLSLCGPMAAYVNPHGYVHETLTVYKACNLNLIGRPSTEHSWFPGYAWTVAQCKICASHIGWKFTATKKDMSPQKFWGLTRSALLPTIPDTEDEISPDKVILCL
Procedure: The binding to cereblon (CRBN) was determined using the Cereblon Binding Kit (Cisbio, #64BDCRBNPEG) following the manufacturer's instruction. Briefly, serially diluted compounds were incubated with GST-tagged wild-type human CRBN protein, XL665-labelled Thalidomide and Europium Cryptate labelled GST antibody at room temperature for about 3 hours.
Another experiment has as its target T3, STAT3 (Homo sapiens, UniProt P40763).
T3 construct: host or cells: HeLa (STAT3-HiBiT CRISPR knock-in clone)
As to the kind of experiment: STAT3 degradation HiBiT assay (STAT3-HIBIT KI HeLa). Format: cell-based. Particulars: STAT3-HIBIT KI HeLa cells, 24 hours. On the procedure:
STAT3-HIBIT KI HeLa cell line was purchased from Promega. This cell line is a clone created by using CRISPR-Cas9 to fuse HiBIT to the 3′ end of STAT3 in HeLa cells. DMEM medium and FBS were purchased from Gibco/Thermo Fisher Scientific. STAT3 degradation was determined based on quantification of luminescent signal using Nano-Glo HiBIT Lytic Detection System. In a typical procedure, cells seeded at 20000 cells per well in 96-well white plates (Corning) were incubated with serially diluted compounds for 24 hours at 37° C. with 5% CO2. At the end of treatment, Nano-Glo HiBIT Lytic Detection reagents was added to the wells and luminescence was acquired on TECAN PSARK plate reader. Untreated cells were used as control. Data points were fit with a four-parameter equation to generate a concentration-response curve. IC50 values were calculated using a nonlinear regression analysis of the mean±SD from triplicate.

A further experiment has as its system SU-DHL-1. As to the kind of experiment: Cell viability assay (CellTiter-Glo 2.0), SU-DHL-1. As to conditions: Homo sapiens, 96 h; SU-DHL-1 cells, 4 days. The format is cell-based. How it is done: SU-DHL-1 and SUP-M2 cell viability was determined by CellTiter-Glo 2.0 Cell Viability Assay (Promega). […] In a typical procedure, cells seeded at 1000 cells per well in 384-well white plates (Corning) were incubated with serially diluted compounds for 4 days at 37° C. with 5% CO2. At the end of treatment, CellTiter-Glo 2.0 was added to the wells and luminescence was acquired on TECAN PSARK plate reader. Untreated cells were used as control. Data points were fit with a four-parameter equation to generate a concentration-response curve. IC50 values were calculated using a nonlinear regression analysis of the mean±SD from triplicate.

The next experiment concerns MOLM-16. Briefly: Cell viability assay (CellTiter-Glo 2.0), MOLM-16. Format: cell-based. Particulars: MOLM16; MOLM-16 cells. Background: ATP-based viability assays read luminescence as a measure of living cells.

T3 sequence (P40763 whole entry): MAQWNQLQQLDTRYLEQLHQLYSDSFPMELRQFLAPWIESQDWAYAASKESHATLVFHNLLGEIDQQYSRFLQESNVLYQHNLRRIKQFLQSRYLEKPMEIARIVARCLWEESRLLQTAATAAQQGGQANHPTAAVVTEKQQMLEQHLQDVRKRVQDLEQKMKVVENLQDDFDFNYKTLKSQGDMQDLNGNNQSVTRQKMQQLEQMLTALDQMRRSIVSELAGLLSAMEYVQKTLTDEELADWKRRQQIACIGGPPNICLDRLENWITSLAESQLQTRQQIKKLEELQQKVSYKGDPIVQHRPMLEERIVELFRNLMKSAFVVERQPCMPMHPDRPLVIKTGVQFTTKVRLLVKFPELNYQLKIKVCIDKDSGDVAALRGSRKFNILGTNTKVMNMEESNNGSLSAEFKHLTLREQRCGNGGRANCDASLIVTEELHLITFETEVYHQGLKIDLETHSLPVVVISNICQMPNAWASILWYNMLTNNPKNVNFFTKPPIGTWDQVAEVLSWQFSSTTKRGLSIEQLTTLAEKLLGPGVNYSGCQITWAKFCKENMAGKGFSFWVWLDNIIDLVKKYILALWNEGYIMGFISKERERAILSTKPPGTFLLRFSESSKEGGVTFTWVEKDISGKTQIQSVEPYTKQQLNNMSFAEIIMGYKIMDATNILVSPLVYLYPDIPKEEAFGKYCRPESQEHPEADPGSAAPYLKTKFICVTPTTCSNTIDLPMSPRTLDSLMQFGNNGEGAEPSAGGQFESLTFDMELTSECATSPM

As to `C[C@H]1CC2(CCN(c3ccc(C(=O)N4CCC(CN5CCC6(CC5)COc5c6ccc6c5CN([C@H]5CCC(=O)NC5=O)C6=O)CC4)cc3)CC2)CN1c1ccc(C#N)c(Cl)c1` [ARD-1, 2-chloro-4-((S)-8-(4-(4-((7-((S)-2,6-dioxopiperidin-3-yl)-6-oxo-7,8-dihydro-2H,6H-spiro[furo[2,3-e]isoindole-3,4′-piperidin]-1′-yl)methyl)piperidine-1-carbonyl)phenyl)-3-methyl-2,8-diazaspiro[4.5]decan-2-yl)benzonitrile], on androgen receptor (AR), the Dmax (usually the greatest extent of degradation seen) is over 75%.
On the same count and under the same terms, the value for `C[C@@H]1N(c2ccc(C#N)c(Cl)c2)CCC12CCN(c1ccc(C(=O)N3CCC(CN4CCC5(CC4)COc4c5ccc5c4CN([C@H]4CCC(=O)NC4=O)C5=O)CC3)cc1)CC2` [ARD-2] was over 75%.
As to `COc1cc(-c2cn(C)c(=O)c3cnc(N4CCC4)cc23)cc(OC)c1C(=O)N1CCC2(CCC(CN3CCC4(CC3)COc3c4ccc4c3CN(C3CCC(=O)NC3=O)C4=O)CC2)CC1` (centres unmarked) [BRD-1, 3-(1′-((3-(4-(6-(azetidin-1-yl)-2-methyl-1-oxo-1,2-dihydro-2,7-naphthyridin-4-yl)-2,6-dimethoxybenzoyl)-3-azaspiro[5.5]undecan-9-yl)methyl)-6-oxo-6,8-dihydro-2H,7H-spiro[furo[2,3-e]isoindole-3,4′-piperidin]-7-yl)piperidine-2,6-dione], on BRD9, the Dmax was over 90% and the half-maximal degradation concentration (DC50) (usually the midpoint of the concentration-degradation curve) was under 10 nM.
On androgen receptor (AR), `CN(c1ccc(C#N)c(Cl)c1)[C@H]1CC[C@H](NC(=O)c2ccc(N3CCC(CN4CCC5(CC4)COc4c5ccc5c4CN([C@H]4CCC(=O)NC4=O)C5=O)CC3)nn2)CC1` [ARD-4, N-((1r,4r)-4-((3-chloro-4-cyanophenyl)(methyl)amino)cyclohexyl)-6-(4-((7-((S)-2,6-dioxopiperidin-3-yl)-6-oxo-7,8-dihydro-2H,6H-spiro[furo[2,3-e]isoindole-3,4′-piperidin]-1′-yl)methyl)piperidin-1-yl)pyridazine-3-carboxamide] came in with a Dmax of over 75%.
`N#Cc1ccc(O[C@H]2CC[C@H](NC(=O)c3ccc(N4CCC(CN5CCC6(CC5)COc5c6ccc6c5CN([C@H]5CCC(=O)NC5=O)C6=O)CC4)nn3)CC2)cc1Cl` [ARD-3, N-((1r,4r)-4-(3-chloro-4-cyanophenoxy)cyclohexyl)-6-(4-((7-((S)-2,6-dioxopiperidin-3-yl)-6-oxo-7,8-dihydro-2H,6H-spiro[furo[2,3-e]isoindole-3,4′-piperidin]-1′-yl)methyl)piperidin-1-yl)pyridazine-3-carboxamide]: the Dmax at androgen receptor (AR) was over 75%.
With `O=C1CCC(N2Cc3c(ccc4c3OCC43CCNCC3)C2=O)C(=O)N1` (centres unmarked) [Compound B1, 3-(6-oxo-6,8-dihydro-2H,7H-spiro[furo[2,3-e]isoindole-3,4′-piperidin]-7-yl)piperidine-2,6-dione], in experiment [1], the IC50 – broadly, the concentration needed to halve the response being measured – was 1000 nM.
On STAT3, `CS(=O)(=O)c1cccc(OC[C@H](CCC(N)=O)NC(=O)[C@@H]2CC[C@@H]3CCN(C(=O)CCN4CCC5(CC4)COc4c5ccc5c4CN([C@H]4CCC(=O)NC4=O)C5=O)C[C@H](NC(=O)c4cc5cc(C(F)(F)P(=O)(O)O)ccc5s4)C(=O)N32)c1` [STD 69, ((2-(((5S,8S,10aR)-8-(((S)-5-amino-1-(3-(methylsulfonyl)phenoxy)-5-oxopentan-2-yl)carbamoyl)-3-(3-(7-((S)-2,6-dioxopiperidin-3-yl)-6-oxo-7,8-dihydro-2H,6H-spiro[furo[2,3-e]isoindole-3,4′-piperidin]-1′-yl)propanoyl)-6-oxodecahydropyrrolo[1,2-a][1,5]diazocin-5-yl)carbamoyl)benzo[b]thiophen-5-yl)difluoromethyl)phosphonic acid] had a half-maximal degradation concentration (DC50) of 1000 to 10000 nM and a maximal degradation (Dmax) of 60 to 80%. The molecule further yielded an IC50 in the experiment with SU-DHL-1 of 1000 to 10000 nM. Besides, in the experiment on MOLM-16, the half-maximal inhibitory concentration (IC50) fell in the range of 1000 to 10000 nM.
As for `CS(=O)(=O)c1cccc(OC[C@H](CCC(N)=O)NC(=O)[C@@H]2CC[C@@H]3CCN(C(=O)CCCCN4CCC5(CC4)COc4c5ccc5c4CN([C@H]4CCC(=O)NC4=O)C5=O)C[C@H](NC(=O)c4cc5cc(C(F)(F)P(=O)(O)O)ccc5s4)C(=O)N32)c1` [STD 71, ((2-(((5S,8S,10aR)-8-(((S)-5-amino-1-(3-(methylsulfonyl)phenoxy)-5-oxopentan-2-yl)carbamoyl)-3-(5-(7-((S)-2,6-dioxopiperidin-3-yl)-6-oxo-7,8-dihydro-2H,6H-spiro[furo[2,3-e]isoindole-3,4′-piperidin]-1′-yl)pentanoyl)-6-oxodecahydropyrrolo[1,2-a][1,5]diazocin-5-yl)carbamoyl)benzo[b]thiophen-5-yl)difluoromethyl)phosphonic acid], the half-maximal degradation concentration (DC50) on STAT3 fell in the range of 100 to 1000 nM. This molecule also came in with a Dmax at STAT3 of at least 80%. Also, the half-inhibitory concentration (IC50) lay within 1000 to 10000 nM in the experiment with SU-DHL-1 and 100 to 1000 nM with MOLM-16.
With `COc1cc(-c2cn(C)c(=O)c(C)c2C)cc(OC)c1C(=O)N1CCC2(CCC(CN3CCC4(CC3)COc3c4ccc4c3C(=O)N(C3CCC(=O)NC3=O)C4=O)CC2)CC1` (centres unmarked) [BRD-2, 1′-((3-(2,6-dimethoxy-4-(1,4,5-trimethyl-6-oxo-1,6-dihydropyridin-3-yl)benzoyl)-3-azaspiro[5.5]undecan-9-yl)methyl)-7-(2,6-dioxopiperidin-3-yl)-7-hydro-2H,6H-spiro[furo[2,3-e]isoindole-3,4′-piperidine]-6,8-dione], on BRD9, the Dmax is over 90% and the DC50 was in the range of 10 to 100 nM.

Source of the values: patent publication US20250195484A1, “CEREBLON LIGANDS AND USES THEREOF” (priority 2022, published 2025).
